Legend:
Androgen receptor [1] = target: T1, Androgen receptor (Homo sapiens, UniProt P10275)
T1 sequence (P10275 whole entry): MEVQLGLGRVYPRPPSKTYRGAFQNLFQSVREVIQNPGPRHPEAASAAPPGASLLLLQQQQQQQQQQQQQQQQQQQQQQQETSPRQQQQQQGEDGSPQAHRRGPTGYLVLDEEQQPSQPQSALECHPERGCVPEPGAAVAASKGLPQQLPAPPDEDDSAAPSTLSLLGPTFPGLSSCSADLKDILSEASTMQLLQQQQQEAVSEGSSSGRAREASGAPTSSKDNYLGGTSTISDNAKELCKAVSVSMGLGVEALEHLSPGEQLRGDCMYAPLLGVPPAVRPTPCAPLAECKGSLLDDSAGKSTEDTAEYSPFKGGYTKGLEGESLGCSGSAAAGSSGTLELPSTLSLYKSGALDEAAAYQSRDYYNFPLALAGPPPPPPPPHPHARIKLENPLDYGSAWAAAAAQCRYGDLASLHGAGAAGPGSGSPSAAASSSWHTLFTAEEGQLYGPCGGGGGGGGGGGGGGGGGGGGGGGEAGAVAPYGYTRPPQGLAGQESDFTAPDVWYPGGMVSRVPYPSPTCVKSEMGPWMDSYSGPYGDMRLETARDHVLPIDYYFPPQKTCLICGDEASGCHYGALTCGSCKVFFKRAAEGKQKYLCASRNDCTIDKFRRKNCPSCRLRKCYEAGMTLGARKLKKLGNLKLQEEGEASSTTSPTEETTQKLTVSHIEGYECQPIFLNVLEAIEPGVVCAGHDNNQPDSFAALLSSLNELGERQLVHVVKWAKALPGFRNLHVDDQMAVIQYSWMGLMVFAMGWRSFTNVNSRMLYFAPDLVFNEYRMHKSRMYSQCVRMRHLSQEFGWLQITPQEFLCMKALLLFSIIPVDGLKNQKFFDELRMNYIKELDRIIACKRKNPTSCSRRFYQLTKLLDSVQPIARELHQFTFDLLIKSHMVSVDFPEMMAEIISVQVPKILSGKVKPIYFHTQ
Description: Agonist activity at human androgen receptor by luciferase reporter gene assay

Androgen receptor [2] = target: T1, Androgen receptor; remark: listed apart in the source
Description: Antagonist activity at human androgen receptor by luciferase reporter gene assay

Androgen receptor [3] = target: T1, Androgen receptor; remark: listed apart in the source
Description: Binding affinity to human AR

[4] = Half life in Sprague-Dawley rat at 2.5 mg/kg, iv; assay type: ADME, organism-based; set-up: dose 2.5 mg/kg, route intravenous; settings: in vivo
[5] = AUC (0 to infinity) in Sprague-Dawley rat at 10 mg/kg, po; assay type: ADME, organism-based; set-up: time infinity, dose 10 mg/kg, route oral; settings: plasma
[6] = Bioavailability in Sprague-Dawley rat at 10 mg/kg, po; assay type: ADME, organism-based; settings: in vivo
Glucocorticoid receptor = target: T2, Glucocorticoid receptor (Homo sapiens, UniProt P04150); experiment: Binding affinity to GR
T2 sequence (P04150 whole entry): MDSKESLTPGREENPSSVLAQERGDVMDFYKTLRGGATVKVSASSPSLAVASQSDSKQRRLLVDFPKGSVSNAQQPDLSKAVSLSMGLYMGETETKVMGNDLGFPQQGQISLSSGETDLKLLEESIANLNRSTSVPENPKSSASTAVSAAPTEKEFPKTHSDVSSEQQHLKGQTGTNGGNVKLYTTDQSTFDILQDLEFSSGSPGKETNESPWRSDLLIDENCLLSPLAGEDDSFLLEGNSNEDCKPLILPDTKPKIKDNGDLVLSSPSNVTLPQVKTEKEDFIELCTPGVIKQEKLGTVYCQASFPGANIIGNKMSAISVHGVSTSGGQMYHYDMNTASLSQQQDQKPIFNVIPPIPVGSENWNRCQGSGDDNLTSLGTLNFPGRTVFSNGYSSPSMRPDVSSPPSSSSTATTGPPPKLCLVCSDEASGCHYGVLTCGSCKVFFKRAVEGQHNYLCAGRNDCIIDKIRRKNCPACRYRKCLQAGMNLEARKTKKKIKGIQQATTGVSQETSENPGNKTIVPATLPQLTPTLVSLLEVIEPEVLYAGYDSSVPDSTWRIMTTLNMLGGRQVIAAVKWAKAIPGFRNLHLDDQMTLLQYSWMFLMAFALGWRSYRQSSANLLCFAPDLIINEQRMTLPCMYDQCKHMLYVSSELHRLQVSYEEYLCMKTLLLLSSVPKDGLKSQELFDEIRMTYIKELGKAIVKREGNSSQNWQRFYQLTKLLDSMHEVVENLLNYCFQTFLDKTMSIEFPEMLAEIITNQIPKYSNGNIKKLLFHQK

[7] = Bioavailability in Sprague-Dawley rat at 14.6 mg/kg, po; assay type: ADME, organism-based; settings: in vivo
Progesterone receptor = target: T3, Progesterone receptor (Homo sapiens, UniProt P06401); experiment: Binding affinity to PR
T3 sequence (P06401 whole entry): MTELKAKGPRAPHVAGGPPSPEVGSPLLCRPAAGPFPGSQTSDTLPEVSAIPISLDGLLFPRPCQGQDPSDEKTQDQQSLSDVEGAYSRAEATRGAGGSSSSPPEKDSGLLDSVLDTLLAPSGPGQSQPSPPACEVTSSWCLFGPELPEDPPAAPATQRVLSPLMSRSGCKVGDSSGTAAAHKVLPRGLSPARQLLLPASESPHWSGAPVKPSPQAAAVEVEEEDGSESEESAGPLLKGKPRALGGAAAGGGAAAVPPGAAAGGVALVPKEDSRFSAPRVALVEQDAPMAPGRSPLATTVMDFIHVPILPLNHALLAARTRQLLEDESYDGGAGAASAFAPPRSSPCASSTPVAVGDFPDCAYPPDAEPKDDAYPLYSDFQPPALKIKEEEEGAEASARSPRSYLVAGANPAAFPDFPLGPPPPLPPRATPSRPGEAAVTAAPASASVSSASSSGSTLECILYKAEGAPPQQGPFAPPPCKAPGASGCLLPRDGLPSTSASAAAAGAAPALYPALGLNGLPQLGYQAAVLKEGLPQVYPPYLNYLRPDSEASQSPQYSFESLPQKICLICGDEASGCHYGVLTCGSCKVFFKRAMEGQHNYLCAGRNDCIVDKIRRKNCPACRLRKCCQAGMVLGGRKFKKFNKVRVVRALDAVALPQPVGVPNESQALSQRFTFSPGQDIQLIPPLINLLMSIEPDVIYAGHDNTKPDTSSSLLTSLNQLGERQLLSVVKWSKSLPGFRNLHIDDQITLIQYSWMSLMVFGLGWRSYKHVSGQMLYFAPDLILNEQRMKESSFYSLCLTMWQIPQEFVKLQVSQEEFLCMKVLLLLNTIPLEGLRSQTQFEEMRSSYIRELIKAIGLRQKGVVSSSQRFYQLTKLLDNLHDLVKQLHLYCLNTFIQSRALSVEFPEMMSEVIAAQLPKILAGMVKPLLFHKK

[8] = AUC (0 to infinity) in Sprague-Dawley rat at 14.6 mg/kg, po; assay type: ADME, organism-based; set-up: time infinity, dose 14.6 mg/kg, route oral; settings: plasma
[9] = Anabolic effect as increased levator ani muscle weight in orchidectomized rat model at doses > 1 mg/kg; assay type: functional, organism-based; set-up: dose 1 mg/kg
Estrogen receptor = target: T4, Estrogen receptor (Homo sapiens, UniProt P03372); experiment: Binding affinity to ERalpha
T4 sequence (P03372 whole entry): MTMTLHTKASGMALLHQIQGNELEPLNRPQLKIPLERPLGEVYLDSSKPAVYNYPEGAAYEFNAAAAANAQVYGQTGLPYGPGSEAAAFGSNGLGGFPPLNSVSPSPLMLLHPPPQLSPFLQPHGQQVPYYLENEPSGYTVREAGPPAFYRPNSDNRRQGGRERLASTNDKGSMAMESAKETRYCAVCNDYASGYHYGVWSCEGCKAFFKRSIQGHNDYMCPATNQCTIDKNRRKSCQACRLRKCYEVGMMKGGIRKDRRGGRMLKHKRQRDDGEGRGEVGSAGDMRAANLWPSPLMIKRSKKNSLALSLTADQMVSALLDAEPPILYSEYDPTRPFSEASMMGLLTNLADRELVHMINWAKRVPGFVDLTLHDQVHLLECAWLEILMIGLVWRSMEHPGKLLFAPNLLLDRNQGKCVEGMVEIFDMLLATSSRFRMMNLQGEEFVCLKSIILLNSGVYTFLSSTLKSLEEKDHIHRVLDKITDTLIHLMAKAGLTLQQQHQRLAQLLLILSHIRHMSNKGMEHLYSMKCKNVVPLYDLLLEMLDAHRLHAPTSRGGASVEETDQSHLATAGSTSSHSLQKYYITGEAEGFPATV

[10] = target: T5, Mineralocorticoid receptor (Homo sapiens, UniProt P08235); experiment: Binding affinity to MR
T5 sequence (P08235 whole entry): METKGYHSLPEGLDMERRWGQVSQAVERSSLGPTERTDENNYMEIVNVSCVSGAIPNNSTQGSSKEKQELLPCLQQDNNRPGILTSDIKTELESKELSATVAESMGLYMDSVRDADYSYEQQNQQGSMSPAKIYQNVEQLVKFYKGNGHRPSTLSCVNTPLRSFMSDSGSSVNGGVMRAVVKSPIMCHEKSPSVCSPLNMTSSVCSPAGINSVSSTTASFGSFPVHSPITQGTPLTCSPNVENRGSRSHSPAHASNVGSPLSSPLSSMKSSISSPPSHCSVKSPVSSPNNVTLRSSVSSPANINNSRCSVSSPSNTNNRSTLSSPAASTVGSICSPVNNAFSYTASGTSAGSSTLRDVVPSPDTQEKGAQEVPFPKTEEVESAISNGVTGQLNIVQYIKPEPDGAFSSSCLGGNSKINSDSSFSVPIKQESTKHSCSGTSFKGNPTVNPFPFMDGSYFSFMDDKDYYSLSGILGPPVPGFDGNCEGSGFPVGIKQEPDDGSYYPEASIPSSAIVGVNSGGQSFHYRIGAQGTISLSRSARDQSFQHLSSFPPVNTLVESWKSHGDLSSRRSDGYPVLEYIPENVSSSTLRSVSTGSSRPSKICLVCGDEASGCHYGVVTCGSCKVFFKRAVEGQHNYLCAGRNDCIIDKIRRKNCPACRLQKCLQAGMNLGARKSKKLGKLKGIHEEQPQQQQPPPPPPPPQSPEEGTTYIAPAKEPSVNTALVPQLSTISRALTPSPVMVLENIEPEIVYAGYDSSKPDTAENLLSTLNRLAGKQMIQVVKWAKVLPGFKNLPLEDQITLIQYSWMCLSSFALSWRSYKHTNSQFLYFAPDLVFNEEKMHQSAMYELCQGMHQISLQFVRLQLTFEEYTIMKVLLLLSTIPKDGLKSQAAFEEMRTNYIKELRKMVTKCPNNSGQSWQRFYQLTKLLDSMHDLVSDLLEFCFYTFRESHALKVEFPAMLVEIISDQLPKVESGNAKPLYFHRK

Compound | EC50 (Androgen receptor [1]) [nM] | IC50 (Androgen receptor [2]) [nM] | Ki (Androgen receptor [3]) [nM] | also measured
C[C@@H]1CC[C@@H](C)N1c1ccc2[nH]c(=O)cc(C(F)(F)F)c2c1 (racemic) | 48 | > 10000 | 43 | 
CC1CCCN1c1ccc2[nH]c(=O)cc(C(F)(F)F)c2c1 (racemic) |  | > 10000 | 72 | 
O=c1cc(C(F)(F)F)c2cc(N3CCCC3)ccc2[nH]1 | > 10000 | 25 | 1700 | 
C[C@@H]1CC[C@H](CO)N1c1ccc2[nH]c(=O)cc(C(F)(F)F)c2c1 | 21 | > 10000 | 70 | 
O=c1cc(C(F)(F)F)c2cc(N(CC(F)(F)F)CC(F)(F)F)ccc2[nH]1 |  |  |  | half-life [4]: 1.7 h; AUC(0-inf) [5]: 3150 ng·h/mL; bioavailability [6]: 43%
C[C@@H]1CC[C@H](C)N1c1ccc2[nH]c(=O)cc(C(F)(F)F)c2c1 | 2.6 | > 10000 | 19 | 
C[C@@H]1CC[C@H]([C@H](O)C(F)(F)F)N1c1ccc2[nH]c(=O)cc(C(F)(F)F)c2c1 | 8.4 | > 10000 | 7.6 | 
C[C@@H]1CC[C@H](CCl)N1c1ccc2[nH]c(=O)cc(C(F)(F)F)c2c1 | 12 | > 10000 | 10 | 
C[C@@H]1CC[C@H]([C@@H](O)C(F)(F)F)N1c1ccc2[nH]c(=O)cc(C(F)(F)F)c2c1 [LGD-2941] | 7.1 | > 10000 | 1.5 | Ki (Glucocorticoid receptor): 8300 nM; half-life [4]: 2.7 h; bioavailability [7]: 100%; Ki (Progesterone receptor): 2500 nM; AUC(0-inf) [8]: 11800 ng·h/mL; Anabolic activity [9]: Anabolic; Ki (Estrogen receptor): > 10000 nM; Ki [10]: > 10000 nM

— ChEMBL document CHEMBL1148826, “Substituted 6-(1-pyrrolidine)quinolin-2(1H)-ones as novel selective androgen receptor modulators” (J Med Chem, 2007)
